From patent US20250051277A1, “DELIVERY OF THERAPEUTIC ALKALOID COMPOUNDS” (Sensorium Therapeutics, Inc., priority 2021, published 2025)
Where two headings read alike, the source gives them in different places.

Experiments:
[1] = format: physicochemical; details: SGF with pepsin, pH 1.5, 37° C., 0.5 mM
[2] = format: physicochemical; details: DI water, 25° C., 0.5 mM

SMILES | Condition 1 Conversion (%) ([1]; time 1 min) | Condition 1 Conversion (%) ([1]; time 5 min) | Condition 1 Conversion (%) ([1]; time 30 min) | Condition 1 Conversion (%) ([1]; time 1 h) | Condition 1 Conversion (%) ([1]; time 4 h) | Condition 1 Conversion (%) ([1]; time 24 h) | Condition 2 Conversion (%) ([2]; time 1 min) | Condition 2 Conversion (%) ([2]; time 5 min) | Condition 2 Conversion (%) ([2]; time 30 min) | Condition 2 Conversion (%) ([2]; time 1 h) | Condition 2 Conversion (%) ([2]; time 4 h) | Condition 2 Conversion (%) ([2]; time 24 h)
COc1ccc([C@]23CCN(C)[C@H]2CC(OC)(OC)CC3)cc1OC (stereo in doubt) [Compound 190, 3a-(3,4-dimethoxyphenyl)-6,6-dimethoxy-1-methyl-2,3,4,5,7,7a-hexahydroindole] | 0% | 8.30% | 82.97% | 100% | 100% | 100% | 0% | 0% | 0% | 0% | 0% | 0%
COc1ccc([C@@]23CCC(=NNC(=O)CC(CC(=O)O)CC(C)C)C[C@@H]2N(C)CC3)cc1OC (stereo partly drawn) [Compound 242, 3-[2-[2-[(3aS,7aS)-3a-(3,4-dimethoxyphenyl)-1-methyl-2,3,4,5,7,7a-hexahydroindol-6-ylidene]hydrazino]-2-oxo-ethyl]-5-methyl-hexanoic acid] | 75.01% | 95.02% | 96.13% | 97.72% | 98.02% | 98.34% | 33.46% | 36.51% | 38.53% | 40.8% | 55.46% | 55.7%
COc1ccc([C@@]23CCC(=NOCc4cccnc4)C[C@@H]2N(C)CC3)cc1OC [Compound 209, (3aS)-3a-(3,4-dimethoxyphenyl)-1-methyl-N-(3-pyridylmethoxy)-2,3,4,5,7,7a-hexahydroindol-6-imine] | 0% | 0% | 0% | 0% | 0% | 0% | 0% | 0% | 0% | 0% | 0% | 0%
COc1ccc([C@@]23CCC(=NNCc4cccc(C)c4)C[C@@H]2N(C)CC3)cc1OC [Compound 367, N-[[(3aS,7aS)-3a-(3,4-dimethoxyphenyl)-1-methyl-2,3,4,5,7,7a-hexahydroindol-6-ylidene]amino]-1-(m-tolyl)methanamine] | 100% | 100% | 100% | 100% | 100% | 100% | 5% | 8.3% | 11.5% | 11.92% | 13.32% | 20%
COc1ccc(C23CCC(=NNC(=O)Nc4ccccc4)C[C@@H]2N(C)CC3)cc1OC (stereo in doubt) [Compound 198, 1-[[(3aR)-3a-(3,4-dimethoxyphenyl)-1-methyl-2,3,4,5,7,7a-hexahydroindol-6-ylidene]amino]-3-phenyl-urea] | 0.86% | 1% | 1% | 1% | 1% | 1% | 0.2% | 0.21% | 0.22% | 0.55% | 0.89% | 0.8%
COc1ccc([C@@]23CCC(=NOCCOc4ccccc4)C[C@@H]2N(C)CC3)cc1OC [Compound 234, (3aS,7aS)-3a-(3,4-dimethoxyphenyl)-1-methyl-N-(2-phenoxyethoxy)-2,3,4,5,7,7a-hexahydroindol-6-imine] | 0% | 0% | 0% | 0% | 2.16% | 2.63% | 0% | 0% | 0% | 0% | 0% | 0%
CCCC1CO[C@]2(CC[C@@]3(c4ccc(OC)c(OC)c4)CCN(C)C3C2)O1 (stereo partly drawn) [Compound 212, (2R,3′aS)-3′a-(3,4-dimethoxyphenyl)-1′-methyl-4-propyl-spiro[1,3-dioxolane-2,6′-2,3,4,5,7,7a-hexahydroindole]] | 0% | 0% | 0% | 0% | 0% | 0% | – | – | – | – | – | –
COc1ccc([C@@]23CCC(=NOCC(=O)O)C[C@@H]2N(C)CC3)cc1OC [Compound 201, 2-[[(3aS,7aS)-3a-(3,4-dimethoxyphenyl)-1-methyl-2,3,4,5,7,7a-hexahydroindol-6-ylidene]amino]oxyacetic acid] | 0% | 0% | 0% | 0% | 7.1% | 14.7% | 0% | 0% | 0% | 0% | 0% | 0%
COc1ccc([C@@]23CC/C(=N/NC(=O)Nc4ccccc4Cl)C[C@@H]2N(C)CC3)cc1OC [Compound 270, 1-[(Z)-[(3aS,7aS)-3a-(3,4-dimethoxyphenyl)-1-methyl-2,3,4,5,7,7a-hexahydroindol-6-ylidene]amino]-3-(2-chlorophenyl)urea] | 0% | 0% | 1% | 1% | – | – | 0% | 0% | 0% | 0% | – | –
COc1ccc([C@@]23CCC(=NNC(=O)Nc4cccnc4)C[C@@H]2N(C)CC3)cc1OC [Compound 299, 1-[[(3aS,7aS)-3a-(3,4-dimethoxyphenyl)-1-methyl-2,3,4,5,7,7a-hexahydroindol-6-ylidene]amino]-3-(3-pyridyl)urea] | 53% | 100% | 100% | 100% | 100% | 100% | 0% | 0% | 0% | 0% | 8% | 13%
COc1ccc([C@]23CCN(C)[C@H]2CC2(CC3)OCC(c3ccc([N+](=O)[O-])cc3)O2)cc1OC (some centres unmarked) [Compound 114, (3a'S,7a'S)-3a′-(3,4-dimethoxyphenyl)-1′-methyl-4-(4-nitrophenyl)octahydrospiro[[1,3]dioxolane-2,6′-indole]] | 0% | 0% | 0% | 0% | 0% | 0% | – | – | – | – | – | –
CCCC1CO[C@@]2(CC[C@@]3(c4ccc(OC)c(OC)c4)CCN(C)C3C2)O1 (stereo partly drawn) [Compound 238, (2S,3′aS)-3′a-(3,4-dimethoxyphenyl)-1′-methyl-4-propyl-spiro[1,3-dioxolane-2,6′-2,3,4,5,7,7a-hexahydroindole]] | 0% | 0% | 0% | 0% | 0% | 0% | – | – | – | – | – | –
COc1ccc([C@]23CCN(C)[C@H]2CC2(CC3)O[C@@H]([C@@H](O)Cn3c4nc(=O)[nH]c(=O)c-4nc4cc(C)c(C)cc43)[C@@H](CO)O2)cc1OC (stereo partly drawn) [Compound 196, 10-[(2S)-2-[(3′aS,4S,5R)-3′a-(3,4-dimethoxyphenyl)-5-(hydroxymethyl)-1′-methyl-spiro[1,3-dioxolane-2,6′-2,3,4,5,7,7a-hexahydroindole]-4-yl]-2-hydroxy-ethyl]-7,8-dimethyl-benzo[g]pteridine-2,4-dione] | 0% | 0% | 0% | 0% | 0% | 0% | – | – | – | – | – | –
COc1ccc([C@@]23CCC(=NNC(=O)c4ccncc4)C[C@@H]2N(C)CC3)cc1OC [Compound 157, N-[[(3aS,7aS)-3a-(3,4-dimethoxyphenyl)-1-methyl-2,3,4,5,7,7a-hexahydroindol-6-ylidene]amino]pyridine-4-carboxamide] | 100% | 100% | 100% | 100% | 100% | 100% | – | – | – | – | – | –
COc1ccc([C@]23CCN(C)[C@H]2CC2(CC3)OC[C@H]([C@@H](O)[C@@H](O)Cn3c4nc(=O)[nH]c(=O)c-4nc4cc(C)c(C)cc43)O2)cc1OC (stereo partly drawn) [Compound 174, 10-[(2S,3S)-3-[(3′aS,4R)-3′a-(3,4-dimethoxyphenyl)-1′-methyl-spiro[1,3-dioxolane-2,6′-2,3,4,5,7,7a-hexahydroindole]-4-yl]-2,3-dihydroxy-propyl]-7,8-dimethyl-benzo[g]pteridine-2,4-dione] | 0% | 0% | 0% | 0% | 0% | 0% | – | – | – | – | – | –
